In brackets after ≈: the same amount, converted by molar mass.
Legend:
[1] = system: Candida parapsilosis ATCC 22019; assay: Broth microdilution MIC/MFC; format: cell-based; conditions: for MIC: ATCC22019, read-out: MIC
Description: (§1) In vitro antimicrobial activity assays - Methodology
(§2) The examined compounds 1 - 24 were screened in vitro for antibacterial and antifungal activities using the broth microdilution method according to procedure reported earlier by our research group and European Committee on Antimicrobial Susceptibility Testing (EUCAST) and Clinical and Laboratory Standards Institute (CLSI) guidelines against a panel of reference and clinical or saprophytic strains of microorganisms, in-cluding Gram-positive bacteria, Staphylococcus aureus ATCC 43300 (Methicillin Resistant S. aureus – MRSA), Staphylococcus aureus ATCC 29213 (Methicillin Susceptible S. aureus – MSSA), Staphylococcus epidermidis ATCC 12228, Enterococcus faecalis ATCC 29212, Micro-coccus luteus ATCC 10240, Bacillus subtilis ATCC 6633 and Bacillus cereus ATCC 10876), Gram-negative bacteria (Bordetella bronchiseptica ATCC 4617, Escherichia coli ATCC 25922, Klebsiella pneumoniae ATCC 13883, Proteus mirabilis ATCC 12453, Salmonella typhimurium ATCC 14028 and Pseudomonas aeruginosa ATCC 9027) and fungi belonging to yeasts (Can-dida albicans ATCC 10231, Candida albicans ATCC 2091, Candida parapsilosis ATCC 22019, Candida glabrata ATCC 90030 and Candida krusei ATCC 14243). The microorganisms be-longing to ATCC came from American Type Culture Collection, routinely used for the evaluation of antimicrobials. All the used microbial cultures were first subcultured on nu-trient agar or Sabouraud agar at 35°C for 18-24 h or 30°C for 24-48 h for bacteria and fungi, […]
(§3) The surface of Mueller-Hinton agar (for bacteria) and RPMI 1640 with MOPS (for fungi) were inoculated with the suspensions of bacterial or fungal species. Microbial suspensions were prepared in sterile saline with an optical density of McFarland standard scale 0.5.
(§4) Samples containing examined compounds were dissolved in dimethyl sulfoxide (DMSO).
(§5) Furthermore, bacterial and fungal suspensions were put onto Petri dishes with solid me-dia containing 2 mg/mL of the tested compounds followed incubation at 37°C for 24h and 30°C for 48h for bacteria and fungi, respectively. The inhibition of microbial growth was judged by comparison with a control culture prepared without any sample tested. Ciprof-loxacin, vancomycin, nitrofurantoin, cefuroxime, ampicillin or nystatin (Sigma) were used as a reference antibacterial or antifungal compounds, respectively.
(§6) Subsequently, the MIC (Minimal Inhibitory Concentration) of the compounds was ex-amined by the microdilution broth method, using their two-fold dilutions in Mueller- […]
(§7) Hinton broth or (for bacteria) and RPMI 1640 broth with MOPS (for fungi) prepared in 96-well polystyrene plates. Final concentrations of the compounds ranged from 1000 to 0.488 µg/ml. Microbial suspensions were prepared in 0.85% NaCl with an optical density of 0.5 McFarland standard. Next each bacterial or fungal suspension was added per each well containing broth and various concentrations of the examined compounds. After incuba-

[2] = system: Candida krusei ATCC 14243; assay: Broth microdilution MIC/MFC; format: cell-based; conditions: Pichia kudriavzevii, ATCC14243, read-out: MIC
Description: as §1, §2, §3, §4, §5, §6, §7

[3] = system: Candida albicans ATCC 10231; assay: Broth microdilution MIC/MFC; format: cell-based; conditions: for MIC: ATCC10231, read-out: MIC
Description: as §1, §2, §3, §4, §5, §6, §7

[4] = system: Candida glabrata ATCC 90030; assay: Broth microdilution MIC/MFC; format: cell-based; conditions: Nakaseomyces glabratus, ATCC90030, read-out: MIC
Description: as §1, §2, §3, §4, §5, §6, §7

[5] = system: Candida albicans ATCC 2091; assay: Broth microdilution MIC/MFC; format: cell-based; conditions: for MIC: ATCC2091, read-out: MIC
Description: as §1, §2, §3, §4, §5, §6, §7

[6] = system: Bacillus subtilis ATCC 6633; assay: Broth microdilution MIC/MBC; format: cell-based; conditions: for MIC: ATCC6633, read-out: MIC
Description: Detailed procedures are presented in the Supplementary Materials. […]
as §1, §2, §3, §4, §5, §6, §7

[7] = system: Staphylococcus aureus ATCC 29213; assay: Broth microdilution MIC/MBC; format: cell-based
Description: as §1
as §2, with “antimicrobials.” for “antimicrobials. All the used microbial cultures were first subcultured on nu-trient agar or Sabouraud agar at 35°C for 18-24 h or 30°C for 24-48 h for bacteria and fungi,”
(§8) Samples containing examined compounds were dissolved in dimethyl sulfoxide (DMSO). […]
as §6, §7

[8] = system: Salmonella typhimurium ATCC 14028; assay: Broth microdilution MIC/MBC; format: cell-based; conditions: Salmonella enterica
Description: as §1
as §2, with “antimicrobials.” for “antimicrobials. All the used microbial cultures were first subcultured on nu-trient agar or Sabouraud agar at 35°C for 18-24 h or 30°C for 24-48 h for bacteria and fungi,”
as §8, §6, §7

[9] = system: Proteus mirabilis ATCC 12453; assay: Broth microdilution MIC/MBC; format: cell-based; conditions: ATCC12453
Description: as §1
as §2, with “antimicrobials.” for “antimicrobials. All the used microbial cultures were first subcultured on nu-trient agar or Sabouraud agar at 35°C for 18-24 h or 30°C for 24-48 h for bacteria and fungi,”
as §8, §6, §7

[10] = system: Staphylococcus aureus ATCC 43300; assay: Broth microdilution MIC/MBC; format: cell-based; conditions: Staphylococcus aureus ATCC 43300 (MRSA)
Description: as §1
as §2, with “antimicrobials.” for “antimicrobials. All the used microbial cultures were first subcultured on nu-trient agar or Sabouraud agar at 35°C for 18-24 h or 30°C for 24-48 h for bacteria and fungi,”
as §8, §6, §7

[11] = system: Pseudomonas aeruginosa ATCC 9027; assay: Broth microdilution MIC/MBC; format: cell-based; conditions: ATCC9027
Description: as §1
as §2, with “antimicrobials.” for “antimicrobials. All the used microbial cultures were first subcultured on nu-trient agar or Sabouraud agar at 35°C for 18-24 h or 30°C for 24-48 h for bacteria and fungi,”
as §8, §6, §7

[12] = system: Micrococcus luteus ATCC 10240; assay: Broth microdilution MIC/MBC; format: cell-based; conditions: for MBC: ATCC10240; for MIC: ATCC10240, read-out: MIC
Description: as §1
as §2, with “antimicrobials.” for “antimicrobials. All the used microbial cultures were first subcultured on nu-trient agar or Sabouraud agar at 35°C for 18-24 h or 30°C for 24-48 h for bacteria and fungi,”
as §8, §6, §7

[13] = system: Staphylococcus epidermidis ATCC 12228; assay: Broth microdilution MIC/MBC; format: cell-based; conditions: for MIC: ATCC12228, read-out: MIC
Description: as §1
as §2, with “antimicrobials.” for “antimicrobials. All the used microbial cultures were first subcultured on nu-trient agar or Sabouraud agar at 35°C for 18-24 h or 30°C for 24-48 h for bacteria and fungi,”
as §8, §6, §7

[14] = system: Bordetella bronchiseptica ATCC 4617; assay: Broth microdilution MIC/MBC; format: cell-based; conditions: ATCC4617
Description: as §1, §2, §3, §4, §5, §6, §7

[15] = system: Bacillus cereus ATCC 10876; assay: Broth microdilution MIC/MBC; format: cell-based; conditions: for MIC: ATCC10876, read-out: MIC
Description: as §1, §2, §3, §4, §5, §6, §7

[16] = system: Enterococcus faecalis ATCC 29212; assay: Broth microdilution MIC/MBC; format: cell-based; conditions: for MIC: ATCC29212, read-out: MIC
Description: as §1, §2, §3, §4, §5, §6, §7

[17] = system: Klebsiella pneumoniae ATCC 13883; assay: Broth microdilution MIC/MBC; format: cell-based; conditions: ATCC13883
Description: as §1, §2, §3, §4, §5, §6, §7

[18] = system: Escherichia coli ATCC 25922; assay: Broth microdilution MIC/MBC; format: cell-based; conditions: ATCC25922
Description: as §1, §2, §3, §4, §5, §6, §7

Compound | MIC ([1]; Lodderomyces parapsilosis) | MIC [2] | MIC [3] | MIC [4] | MIC [5] | melting point | MIC [6] | MIC ([7]; ATCC29213) | MIC [8] | MIC [9] | MIC [10] | MIC [11] | MBC/MIC [12] | MBC [12] | MIC [12] | MIC [13] | MIC [14] | MIC [15] | MIC [16] | MIC [17] | also measured
CCOc1ccc(/C=N/NC(=O)c2ccc(O)cc2O)cc1 [Compound 5, N-[(4-ethoxyphenyl)methylidene]-2,4-dihydroxybenzohydrazide] | > 1000 µg/mL | > 1000 µg/mL | 1000 µg/mL (≈ 3330 µM) | > 1000 µg/mL | 500 µg/mL (≈ 1660 µM) | 248 °C | 500 µg/mL (≈ 1660 µM) | 1000 µg/mL (≈ 3330 µM) | > 1000 µg/mL | > 1000 µg/mL | > 1000 µg/mL | > 1000 µg/mL | > 2 | > 1000 µg/mL | 500 µg/mL (≈ 1660 µM) | > 1000 µg/mL | > 1000 µg/mL | 500 µg/mL (≈ 1660 µM) | 1000 µg/mL (≈ 3330 µM) | > 1000 µg/mL | MFC/MIC [3]: > 1; MFC ([3]; ATCC10231, read-out: MFC): > 1000 µg/mL; MFC/MIC [5]: > 2; MFC ([5]; ATCC2091, read-out: MFC): > 1000 µg/mL; MBC/MIC [6]: > 2; MBC ([6]; ATCC6633): > 1000 µg/mL; MBC/MIC [7]: > 1; MBC ([7]; ATCC29213): > 1000 µg/mL; MBC/MIC [15]: > 2; MBC ([15]; ATCC10876): > 1000 µg/mL; MBC/MIC [16]: > 1; MBC ([16]; ATCC29212, read-out: MBC): > 1000 µg/mL; MIC [18]: > 1000 µg/mL
COc1ccc(/C=N/NC(=O)c2ccc(O)cc2O)c(Br)c1O [Compound 15, N-[(2-bromo-3-hydroxy-4-methoxyphenyl)methylidene]-2,4-dihydroxybenzohydrazide] | 1000 µg/mL (≈ 2620 µM) | > 1000 µg/mL | > 1000 µg/mL | > 1000 µg/mL | > 1000 µg/mL | 244 °C | > 1000 µg/mL | > 1000 µg/mL | > 1000 µg/mL | > 1000 µg/mL | > 1000 µg/mL | > 1000 µg/mL | > 2 | > 1000 µg/mL | 500 µg/mL (≈ 1310 µM) | 1000 µg/mL (≈ 2620 µM) | > 1000 µg/mL | > 1000 µg/mL | > 1000 µg/mL | > 1000 µg/mL | MFC/MIC [1]: > 1; MFC ([1]; Lodderomyces parapsilosis, ATCC22019, read-out: MFC): > 1000 µg/mL; MBC/MIC [13]: > 1; MBC ([13]; ATCC12228): > 1000 µg/mL; MIC [18]: > 1000 µg/mL

From publication PMC10743905, “Design, Synthesis, and In Vitro and In Vivo Bioactivity Studies of Hydrazide–Hydrazones of 2,4-Dihydroxybenzoic Acid” (International Journal of Molecular Sciences, 2023)
